Test results reported in patent US20100331269A1, “TRITERPENES DERIVATIVES AND USES THEREOF AS ANTITUMOR AGENTS OR ANTI-INFLAMMATORY AGENTS” (priority 2006, published 2010).

How the values were obtained:
[1] = tested on: DLD-1 human colorectal adenocarcinoma cells; experiment: Cytotoxicity, resazurin metabolism assay, DLD-1; assay type: cell-based; settings: 48 h, mean ± SD
Excerpt: (§1) Human lung carcinoma (A-549), human colon adenocarcinoma (DLD-1), human normal fibroblasts (WS1), mice melanoma (B16-F1), Human glioma (U-251), Human hepatocellular carcinoma (HEP G2), Human prostate adenocarcinoma (PC-3), Human ovary teratocarcinoma metastatic (PA-1), Human breast adenocarcinona metastatic (MDA-MB-231), Human breast adenocarcinoma (MCF-7) and Human malignant melanoma (SK-MEL-2) cell lines were obtained from the American Type Culture Collection (ATCC). All cell lines were cultured in minimum essential medium containing Earle's salts and L-glutamine (Mediatech Cellgro, Va.), to which was added 10% fetal bovine serum (Hyclone), vitamins (1×), penicillin (100 I.U./mL) and streptomycin (100 μg/mL), essential amino acids (1×) and sodium pyruvate (1×) (Mediatech Cellgro, Va.). Cells were kept at 37° C. in a humidified environment containing 5% CO2.
(§2) Exponentially growing cells were plated in 96-well microplates (Costar, Corning Inc.) at a density of 5×10^3 cells per well in 100 μL of culture medium and were allowed to adhere for 16 hours before treatment. Increasing concentrations of each compound in DMSO (Sigma-Aldrich) were then added (100 μL per well) and the cells were incubated for 48 h. […] Cytotoxicity was assessed using resazurin (O'Brien, J. et al., Eur. J. Biochem. 2000, 267, 5421-5426) on an automated 96-well Fluoroskan Ascent F1™ plate reader (Labsystems) using excitation and emission wavelengths of 530 nm and 590 nm, respectively. Fluorescence was proportional to the cellular metabolic activity in each well. Survival percentage was defined as the fluorescence in experimental wells compared to that in control wells after subtraction of blank values. Each experiment was carried out three times in triplicata. IC50 results were expressed as mean±standard deviation.
(§3) The cytotoxicity of triterpenes (1-8) and corresponding glycosides (9-30) (Table 2 below) as well as of germanicane-type triterpenes and glycosides (31-44) (Table 3 below) was assessed towards human cancer (A-549, DLD-1), mouse melanoma (B16-F1) and human normal skin fibroblast (WS1) cell lines using the resazurin reduction test (RTT test) as previously described (O'Brien, J. et al., Eur. J. Biochem. 2000, 267, 5421-5426). Measurements of fluorescence were carried out after 48 continuous hours of contact between compounds and cells. Results presented in Tables 2 and 3 below express the concentration inhibiting 50% of the cell growth (IC50). Known for its activity against A-549, betulinic acid (3) was used as a positive control in this experimentation. […] The cytotoxic activity of some of these compounds was also assessed using the Hoechst DNA assay (Table 4 below).

[2] = tested on: A-549 human lung carcinoma cells; experiment: Cytotoxicity, resazurin metabolism assay, A-549; assay type: cell-based; settings: 48 h, mean ± SD
Excerpt: as §1, §2, §3

A-549 cells = experiment: Cytotoxicity, Hoechst DNA assay, A-549; assay type: cell-based, human; settings: ± SD
Excerpt: as §1, §3

DLD-1 cells = experiment: Cytotoxicity, Hoechst DNA assay, DLD-1; assay type: cell-based, human; settings: ± SD
Excerpt: as §1, §3

WS-1 cells = experiment: Cytotoxicity, Hoechst DNA assay, WS-1; assay type: cell-based, human; settings: ± SD
Excerpt: as §1, §3

[3] = tested on: WS-1 human normal skin fibroblasts; experiment: Cytotoxicity, resazurin metabolism assay, WS-1; assay type: cell-based; settings: 48 h, mean ± SD
Excerpt: as §1, §2, §3

[4] = tested on: B16-F1 mouse melanoma cells; experiment: Cytotoxicity, resazurin metabolism assay, B16-F1; assay type: cell-based; settings: 48 h, mean ± SD
Excerpt: as §1, §2, §3

B16-F1 cells = experiment: Cytotoxicity, Hoechst DNA assay, B16-F1; assay type: cell-based, mouse; settings: ± SD
Excerpt: as §1, §3

Structure (SMILES)	IC50 [1] [µM]	IC50 [2] [µM]	IC50 (A-549 cells) [µM]	IC50 (DLD-1 cells) [µM]	IC50 (WS-1 cells) [µM]	IC50 [3] [µM]	IC50 [4] [µM]	IC50 (B16-F1 cells) [µM]
C=C(C)[C@@H]1CC[C@]2(C)CC[C@]3(C)[C@H](CC[C@@H]4[C@@]5(C)CC[C@H](O)C(C)(C)[C@@H]5CC[C@]43C)[C@@H]12 [Compound 1, Lupeol, reference compound]	125 ± 6	165 ± 8	130 ± 20	102 ± 6	70 ± 10	63 ± 3	104 ± 6	72 ± 9
C=C(C)[C@@H]1CC[C@]2(CO)CC[C@]3(C)[C@H](CC[C@@H]4[C@@]5(C)CC[C@H](O)C(C)(C)[C@@H]5CC[C@]43C)[C@@H]12 [Compound 2, Betulin, reference compound]	6.6 ± 0.3	3.8 ± 0.09	4.5 ± 0.3	5.9 ± 0.6	5 ± 1	3.58 ± 0.07	13.8 ± 0.5	10.3 ± 0.7
C=C(C)[C@@H]1CC[C@]2(COC(C)=O)CC[C@]3(C)[C@H](CC[C@@H]4[C@@]5(C)CC[C@H](OC(C)=O)C(C)(C)[C@@H]5CC[C@]43C)[C@@H]12 [Compound 4, 3,28-Diacetoxybetulin]	> 95	> 95				> 95	> 95	
C=C(C)[C@@H]1CC[C@]2(COC(C)=O)CC[C@]3(C)[C@H](CC[C@@H]4[C@@]5(C)CC[C@H](O)C(C)(C)[C@@H]5CC[C@]43C)[C@@H]12 [Compound 5, 28-Acetoxybetulin]	56 ± 4	75 ± 7	49 ± 7	46 ± 5	47 ± 2	44 ± 2	43 ± 2	35 ± 1
C=C(C)[C@@H]1CC[C@]2(CO)CC[C@]3(C)[C@H](CC[C@@H]4[C@@]5(C)CC[C@H](OC(C)=O)C(C)(C)[C@@H]5CC[C@]43C)[C@@H]12 [Compound 6, 3-Acetoxybetulin]	> 253	> 253	90 ± 10	> 253	> 180	> 253	> 253	42 ± 6
C=C(C)[C@@H]1CC[C@]2(C(=O)OC)CC[C@]3(C)[C@H](CC[C@@H]4[C@@]5(C)CC[C@H](O)C(C)(C)[C@@H]5CC[C@]43C)[C@@H]12 [Compound 7, Methyl Betulinate]	25 ± 4	19 ± 3	19 ± 2	21 ± 1	19 ± 4	19 ± 2	26 ± 1	15.7 ± 0.9
C=C(C)[C@@H]1CC[C@]2(C(=O)O)CC[C@]3(C)[C@H](CC[C@@H]4[C@@]5(C)CC[C@H](OC(C)=O)C(C)(C)[C@@H]5CC[C@]43C)[C@@H]12 [Compound 24, 3-Acetoxybetulinic Acid]	20 ± 2	18 ± 2				57 ± 6		
C=C(C)[C@@H]1CC[C@]2(CO)CC[C@]3(C)[C@H](CC[C@@H]4[C@@]5(C)CC[C@H](O[C@@H]6O[C@H](CO)[C@H](O)[C@H](O)[C@H]6O)C(C)(C)[C@@H]5CC[C@]43C)[C@@H]12 [Compound 25, 3-O-β-D-Galactopyranoside of Betulin]	> 100	> 100				> 100		
C=C(C)[C@@H]1CC[C@]2(CO)CC[C@]3(C)[C@H](CC[C@@H]4[C@@]5(C)CC[C@H](O[C@@H]6OC[C@@H](O)[C@H](O)[C@H]6O)C(C)(C)[C@@H]5CC[C@]43C)[C@@H]12 [Compound 27, 3-O-β-D-Xylopyranoside of Betulin]	> 100	90 ± 10				> 100		
C=C(C)[C@@H]1CC[C@]2(C(=O)O)CC[C@]3(C)[C@H](CC[C@@H]4[C@@]5(C)CC[C@H](O[C@@H]6O[C@H](CO)[C@H](O)[C@H](O)[C@H]6O)C(C)(C)[C@@H]5CC[C@]43C)[C@@H]12 [Compound 28, 3-O-β-D-Galactopyranoside of Betulinic Acid]	> 100	> 100				> 100		
CC1(C)CC[C@]23CC[C@]4(C)[C@H](CC[C@@H]5[C@@]6(C)CC[C@H](O)C(C)(C)[C@@H]6CC[C@]54C)[C@H]2[C@H]1OC3 [Compound 31, Allobetulin]	> 100	> 100				> 100		
CC1(C)CC[C@]23CC[C@]4(C)[C@H](CC[C@@H]5[C@@]6(C)CC[C@H](O)C(C)(C)[C@@H]6CC[C@]54C)[C@H]2[C@H]1OC3=O [Compound 32, 28-Oxyallobetulin]	> 100	> 100				70 ± 9		
C[C@@H]1O[C@@H](O[C@H]2CC[C@]3(C)[C@H]4CC[C@@H]5[C@H]6[C@H]7OC[C@@]6(CCC7(C)C)CC[C@@]5(C)[C@]4(C)CC[C@H]3C2(C)C)[C@H](O)[C@H](O)[C@H]1O [Compound 34, 3-O-α-L-Rhamnopyranoside of Allobetulin]	> 100	> 100				75 ± 5		
CC1(C)CCC23CCC4(C)C(CCC5C6(C)CCC(OC7OCC(O)C(O)C7O)C(C)(C)C6CCC54C)C2C1OC3 [Compound 35, 3-O-α-D-Arabinopyranoside of Allobetulin]	> 100	> 100				> 100		
CC1(C)CC[C@]23CC[C@]4(C)[C@H](CC[C@@H]5[C@@]6(C)CC[C@H](O[C@H]7O[C@H](CO)[C@@H](O)[C@H](O)[C@@H]7O)C(C)(C)[C@@H]6CC[C@]54C)[C@H]2[C@H]1OC3 [Compound 37, 3-O-α-D-Mannopyranoside of Allobetulin]	> 100	> 100				> 100		
CC1(C)CC[C@]23CC[C@]4(C)[C@H](CC[C@@H]5[C@@]6(C)CC[C@H](O[C@@H]7OC[C@@H](O)[C@H](O)[C@H]7O)C(C)(C)[C@@H]6CC[C@]54C)[C@H]2[C@H]1OC3 [Compound 38, 3-O-β-D-Xylopyranoside of Allobetulin]	> 100	> 100				> 100		
CC1(C)CCC23CCC4(C)C(CCC5C6(C)CCC(OC7OC(CO)C(O)C(O)C7O)C(C)(C)C6CCC54C)C2C1OC3=O [Compound 39, 3-O-β-D-Glucopyranoside of 28-Oxyallobetulin]	> 100	> 100				> 100		
C[C@@H]1O[C@@H](O[C@H]2CC[C@]3(C)[C@H]4CC[C@@H]5[C@H]6[C@H]7OC(=O)[C@@]6(CCC7(C)C)CC[C@@]5(C)[C@]4(C)CC[C@H]3C2(C)C)[C@H](O)[C@H](O)[C@H]1O [Compound 40, 3-O-α-L-Rhamnopyranoside of 28-Oxyallobetulin]	> 100	> 100				> 100		
CC1(C)CC[C@]23CC[C@]4(C)[C@H](CC[C@@H]5[C@@]6(C)CC[C@H](O[C@H]7OC[C@@H](O)[C@@H](O)[C@@H]7O)C(C)(C)[C@@H]6CC[C@]54C)[C@H]2[C@H]1OC3=O [Compound 41, 3-O-α-D-Arabinopyranoside of 28-oxyallobetulin]	> 100	> 100				> 100		
CC1(C)CC[C@]23CC[C@]4(C)[C@H](CC[C@@H]5[C@@]6(C)CC[C@H](O[C@@H]7O[C@H](CO)[C@H](O)[C@H](O)[C@H]7O)C(C)(C)[C@@H]6CC[C@]54C)[C@H]2[C@H]1OC3=O [Compound 42, 3-O-β-D-Galactopyranoside of 28-Oxyallobetulin]	> 100	> 100				> 100		
CC1(C)CC[C@]23CC[C@]4(C)[C@H](CC[C@@H]5[C@@]6(C)CC[C@H](O[C@H]7O[C@H](CO)[C@@H](O)[C@H](O)[C@@H]7O)C(C)(C)[C@@H]6CC[C@]54C)[C@H]2[C@H]1OC3=O [Compound 43, 3-O-α-D-Mannopyranoside of 28-oxyallobetulin]	> 100	> 100				> 100		
CC1(C)CC[C@]23CC[C@]4(C)[C@H](CC[C@@H]5[C@@]6(C)CC[C@H](O[C@@H]7OC[C@@H](O)[C@H](O)[C@H]7O)C(C)(C)[C@@H]6CC[C@]54C)[C@H]2[C@H]1OC3=O [Compound 44, 3-O-β-D-Xylopyranoside of 28-Oxyallobetulin]	> 100	> 100				> 100		
